From PubChem BioAssay (NCI)
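Dose response: 5 concentrations. Exposure: 48 h. Format: 96-well plates. Endpoint: linear interpolation; highest concentration if not reached. At the TGI there is no net growth.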 Where a SMILES comes first, the peptide text is derived from it. [ ]: non-standard residue; d: D form. pGlu = O=C1CC[CH](C(=O)O)N1

Tests used:
Assay in all cases: inhibition of tumour cell growth, NCI panel, 48 h
CCRF-CEM leukemia = test system: CCRF-CEM leukemia
COLO 205 colon = test system: COLO 205 colon
HCC-2998 colon = test system: HCC-2998 colon
HL-60(TB) leukemia = test system: HL-60(TB) leukemia
NCI-H23 lung = test system: NCI-H23 lung
NCI-H522 lung = test system: NCI-H522 lung
SF-268 CNS = test system: SF-268 CNS
SF-295 CNS = test system: SF-295 CNS
SK-MEL-2 melanoma = test system: SK-MEL-2 melanoma
LOX IMVI melanoma = test system: LOX IMVI melanoma
SNB-75 CNS = test system: SNB-75 CNS

| SMILES | TGI (CCRF-CEM leukemia) | TGI (COLO 205 colon) | TGI (HCC-2998 colon) | TGI (HL-60(TB) leukemia) | TGI (NCI-H23 lung) | TGI (NCI-H522 lung) | TGI (SF-268 CNS) | TGI (SF-295 CNS) | TGI (SK-MEL-2 melanoma) | TGI (LOX IMVI melanoma) | TGI (SNB-75 CNS) |
| --- | --- | --- | --- | --- | --- | --- | --- | --- | --- | --- | --- |
| CO/C=C(/C(=O)OC)[C@@H]1C[C@@H]1c1ccc2ccccc2c1 | 63.1 µM | 32.9 µM | 50.5 µM | 49.3 µM | > 100 µM | 28.5 µM | 99.2 µM | > 100 µM | 35.1 µM | – | – |
| CC(=O)OCc1c(O)c2c([nH]c1=O)CCc1ccccc1-2 | 297 µM | 112 µM | 197 µM | 210 µM | 218 µM | 84.6 µM | 221 µM | 274 µM | > 35 µM | 131 µM | – |
| CCOC(=O)C12CCC(=O)N1N(C)c1ncccc1N2 (stereo unspecified) | > 100 µM | > 100 µM | > 100 µM | – | > 100 µM | > 100 µM | > 100 µM | > 100 µM | – | > 100 µM | > 100 µM |
| CC(NC(=O)C1CCC(=O)N1)C(=O)N1CCCC1C(N)=O (stereo not drawn) ([pGlu]-Ala-Pro-NH2; configuration not given here) | > 100 µM | > 100 µM | > 100 µM | > 100 µM | > 100 µM | > 100 µM | > 100 µM | > 100 µM | – | > 100 µM | > 100 µM |
| O=C(O)/C=C/c1ccc(Oc2ccccc2C(=O)O)o1 | > 10 µM | > 10 µM | > 10 µM | > 10 µM | > 10 µM | > 10 µM | > 10 µM | > 10 µM | – | > 10 µM | > 10 µM |
| COc1ccc(CCN2CCN(CCCc3ccccc3)CC2)cc1 | > 100 µM | 54.3 µM | > 100 µM | > 100 µM | > 100 µM | > 100 µM | > 100 µM | > 100 µM | > 100 µM | > 100 µM | – |
| C=CCC1(C(=O)OC)CCC/C(=N\O)C1 (stereo unspecified) | > 10 µM | > 10 µM | > 10 µM | > 10 µM | > 10 µM | > 10 µM | > 10 µM | > 10 µM | – | > 10 µM | > 10 µM |
| CCCCN(CC)C(=O)C(=O)Cc1nc2ccc(C(=O)c3ccccc3)cc2[nH]c1=O | > 31.6 µM | > 100 µM | – | > 31.6 µM | > 100 µM | 75 µM | > 100 µM | > 100 µM | – | > 100 µM | > 88.1 µM |
| CC1OC(OC2C(O)COC(OC3C(C)OC(OC4C(OC(=O)[C@]56CCC(C)(C)C[C@@H]5C5=CCC7[C@@]8(C)C[C@H](O)[C@H](OC9OC(CO)C(O)C(O)C9O)[C@@](C)(CO)[C@@H]8CC[C@@]7(C)[C@]5(C)CC6)OCC(O)C4O)C(O)C3O)C2O)C(O)C(O)C1O (stereo partly specified) | 45.8 µM | 38.7 µM | 38 µM | – | 51.2 µM | > 100 µM | 49.4 µM | 48 µM | – | 46 µM | 39 µM |
| O=C(O)c1nc2cc(Cl)ccc2[nH]c1=O | > 100 µM | > 100 µM | > 100 µM | > 100 µM | > 100 µM | > 100 µM | > 100 µM | > 100 µM | > 100 µM | > 100 µM | – |
| Cc1nc(OCc2ccccc2)c2ncn(CCO)c2n1 | > 100 µM | > 100 µM | – | > 100 µM | > 100 µM | > 100 µM | > 100 µM | > 100 µM | > 100 µM | > 100 µM | – |
| O=P1(c2ccccc2)C(c2ccccc2)CCC1c1ccccc1 (stereo unspecified) | > 100 µM | > 100 µM | > 100 µM | 43.4 µM | > 100 µM | > 100 µM | > 100 µM | > 100 µM | – | > 100 µM | > 100 µM |
| Fc1cc(C2=Nn3c(COc4ccccc4Cl)nnc3S/C2=C\c2ccc(Cl)cc2)c(Cl)cc1Cl | > 100 µM | – | 16.3 µM | 68.4 µM | 6.33 µM | 22.6 µM | 9.06 µM | > 100 µM | 32.3 µM | 25.2 µM | – |
| O=C1CCCCCCC2=C1C(Sc1ccccc1)CC2 (stereo unspecified) | 67.8 µM | > 100 µM | – | 36.2 µM | > 100 µM | 41.4 µM | 44 µM | > 100 µM | – | 30.7 µM | 90.7 µM |
| CCCCCCN(CCCCCC)CCC(=O)c1ccc2cc(Br)c3ccccc3c2c1 | – | 80.4 µM | > 100 µM | 56.2 µM | > 100 µM | 87.1 µM | > 100 µM | > 100 µM | 92.9 µM | 98.3 µM | – |
| Cc1c(NC(=S)Nc2ccc([N+](=O)[O-])cc2)c(=O)n(-c2ccccc2)n1C | > 100 µM | > 100 µM | > 100 µM | > 100 µM | > 100 µM | > 100 µM | > 100 µM | > 100 µM | – | > 100 µM | > 100 µM |
| COc1ccc(/C=N\N(C)Cc2cccc3ccsc23)cc1 | > 100 µM | > 100 µM | > 100 µM | > 100 µM | > 100 µM | > 100 µM | > 100 µM | > 100 µM | – | > 100 µM | > 100 µM |
| COC(NC(=O)Nc1ccc(C)cc1)(C(F)(F)F)C(F)(F)F | > 100 µM | 36.8 µM | – | > 100 µM | 89.8 µM | 60.1 µM | > 100 µM | 90.7 µM | – | > 100 µM | > 100 µM |
